Data: publication PMC12714728, “VHH antibody loop guides design of a synthetic macrocyclic peptide that potently blocks influenza virus membrane fusion” (npj Viruses, 2025)
Non-standard residues stand in square brackets, D forms with d. Residues, ends and D or L forms follow the SMILES beside them. ξ: configuration not given here. ξhhPhe = NC(CCCc1ccccc1)C(=O)O; dAbu = CC[C@@H](N)C(=O)O

Experiments:
[1] = tested on: H1N1 A/Brisbane/59/2007 (H1/Bri) HA; format: biochemical, influenza A virus; settings: pH 5.25
[2] = tested on: H5/Viet HA (A/Vietnam/1203/2004 (H5N1)); format: binding, influenza A virus
[3] = tested on: H1/NCa HA (A/New Caledonia/20/1999 (H1N1)); format: binding, influenza A virus
[4] = tested on: H1/Cal HA (A/California/07/2009 (H1N1)); format: binding, influenza A virus
[5] = In vitro cell permeability assay; settings: pig; for efflux ratio at 120 min, 30 nM / Papp B→A at 120 min, 30 nM: LLC-Parent; for Papp B→A at 120 min, 30 nM: basolateral to apical
P-gp (MDR1) = assay: In vitro cell permeability / P-gp substrate assay; settings: pig; for Papp A→B at 120 min, 30 nM: LLC-MDR1, apical to basolateral; for Papp B→A at 120 min, 30 nM: LLC-MDR1, basolateral to apical
[6] = LLC-PK1, pH 7.4, Papp BA, no inhibitor
[7] = LLC-PK1, pH 7.4, with elacridar (GF120918) 5 µM, Papp BA, + 5 µM GF120918

Q: What does the source list for CSCC[C@@H]1NC(=O)CNC(=O)CNC(=O)[C@H](C)NC(=O)[C@H](C(C)C)NC(=O)CNC(=O)[C@H](CC(C)C)NC(=O)[C@@H]2CCCN2C(=O)[C@H](CC(=O)O)NC(=O)[C@H](CCC(=O)O)NC(=O)[C@H](Cc2ccc(O)cc2)NC(=O)[C@H](CC(C)C)NC(=O)[C@H]2CCCN2C(=O)CNC(=O)CNC1=O [CP6]?
A: IC50 [1]: 2.74 ± 0.9 µM; IC50 [2]: 13.5 ± 2.17 µM; IC50 [3]: 1.47 ± 0.32 µM; IC50 [4]: 1.09 ± 0.2 µM

Q: Which IC50 [1] does the source give for CSCC[C@@H]1NC(=O)CNC(=O)CNC(=O)[C@H](C)NC(=O)[C@H](C(C)C)NC(=O)CNC(=O)[C@H](CC(C)C)NC(=O)[C@@H]2CCCN2C(=O)[C@H](CC(=O)O)NC(=O)[C@H](CCC(=O)O)NC(=O)[C@H](Cc2ccc(O)cc2)NC(=O)[C@H](CC(C)C)NC(=O)[C@H]2CCCN2C(=O)[C@@H]2CCCN2C(=O)CNC1=O [CP3] here?
A: Its IC50 is 2.78 ± 0.26 µM.

Q: And the IC50 [2]?
A: Its IC50 is 27.1 ± 2.79 µM.

Q: And the IC50 [3]?
A: The IC50 was 2.01 ± 0.54 µM.

Q: And the IC50 [4]?
A: The IC50 was 1.71 ± 0.19 µM.

Q: Which IC50 [1] does the source give for CSCC[C@@H]1NC(=O)CNC(=O)CNC(=O)[C@H](C)NC(=O)[C@H](C(C)C)NC(=O)CNC(=O)[C@H](CC(C)C)NC(=O)[C@@H]2CCCN2C(=O)[C@H](CC(=O)O)NC(=O)[C@H](CCC(=O)O)NC(=O)[C@H](Cc2ccc(O)cc2)NC(=O)[C@H](CC(C)C)NC(=O)[C@H](CO)NC(=O)[C@@H]2CCCN2C(=O)[C@H]2CCCN2C(=O)[C@H](C(C)C)NC(=O)CNC1=O [CP2] here?
A: The IC50 was 21.9 ± 3.24 µM.

Q: And the IC50 [2]?
A: Its IC50 is 55.1 µM.

Q: What about the IC50 [3] of the same compound?
A: Its IC50 is 12.7 ± 1.64 µM.

Q: And the IC50 [4]?
A: Its IC50 is 5.13 µM.

Q: Which IC50 [1] does the source give for CSCC[C@@H]1NC(=O)[C@H](CCC(=O)O)NC(=O)CNC(=O)[C@H](C)NC(=O)[C@H](C(C)C)NC(=O)CNC(=O)[C@H](CC(C)C)NC(=O)[C@@H]2CCCN2C(=O)[C@H](CC(=O)O)NC(=O)[C@H](CCCNC(=N)N)NC(=O)[C@H](Cc2ccc(O)cc2)NC(=O)[C@@H](NC(=O)CCC(=O)O)CSSC[C@@H](C(N)=O)NC1=O [CP13] here?
A: The IC50 was 39.4 ± 8.32 µM.

Q: What about the IC50 [2] of the same compound?
A: The IC50 was 39.8 ± 12.2 µM.

Q: What about the IC50 [3] of the same compound?
A: The IC50 was 12.79 ± 0.09 µM.

Q: What about the IC50 [4] of the same compound?
A: The IC50 was 11.8 ± 2.61 µM.

Q: For C[C@H]1O[C@@H](O[C@H]2[C@@H](O)C[C@H](O[C@H]3[C@@H](O)C[C@H](O[C@H]4CC[C@@]5(C)[C@H](CC[C@@H]6[C@@H]5C[C@@H](O)[C@]5(C)[C@@H](C7=CC(=O)OC7)CC[C@]65O)C4)O[C@@H]3C)O[C@@H]2C)C[C@H](O)[C@@H]1O [3H-Digoxin, Digoxin, reference compound], which Papp A→B at 120 min, 30 nM ([5]; LLC-PK1, pH 7.4) is on record?
A: Its Papp A→B at 120 min, 30 nM is 24.5 ± 1 nm/s.

Q: What about the efflux ratio at 120 min, 30 nM ([5]; LLC-PK1, pH 7.4, Efflux ratio BA/AB, no inhibitor) of the same compound?
A: The efflux ratio at 120 min, 30 nM was 0.94.

Q: What about the Papp B→A at 120 min, 30 nM [5, 6] of the same compound?
A: The Papp B→A at 120 min, 30 nM was 23.1 ± 1.5 nm/s.

Q: What about the efflux ratio at 120 min, 30 nM ([5]; LLC-PK1, pH 7.4, with elacridar (GF120918) 5 µM, Efflux ratio BA/AB, + 5 µM GF120918) of the same compound?
A: The efflux ratio at 120 min, 30 nM was 0.9.

Q: What about the Papp B→A at 120 min, 30 nM [5, 7] of the same compound?
A: Its Papp B→A at 120 min, 30 nM is 23.7 ± 0.8 nm/s.

Q: And the efflux ratio at 120 min, 30 nM (P-gp (MDR1); LLC-PK1, pH 7.4, Efflux ratio BA/AB, LLC-MDR1, no inhibitor)?
A: Its efflux ratio at 120 min, 30 nM is 22.6.

Q: What about the Papp A→B at 120 min, 30 nM (P-gp (MDR1); LLC-PK1, pH 7.4, Papp AB, no inhibitor) of the same compound?
A: Its Papp A→B at 120 min, 30 nM is 4.5 ± 0.8 nm/s.

Q: And the Papp B→A at 120 min, 30 nM (P-gp (MDR1); [6])?
A: Its Papp B→A at 120 min, 30 nM is 103 ± 2 nm/s.

Q: And the efflux ratio at 120 min, 30 nM (P-gp (MDR1); LLC-PK1, pH 7.4, with elacridar (GF120918) 5 µM, Efflux ratio BA/AB, LLC-MDR1, + 5 µM GF120918)?
A: Its efflux ratio at 120 min, 30 nM is 0.91.

Q: What about the Papp A→B at 120 min, 30 nM (P-gp (MDR1); LLC-PK1, pH 7.4, with elacridar (GF120918) 5 µM, Papp AB, + 5 µM GF120918) of the same compound?
A: Its Papp A→B at 120 min, 30 nM is 29.8 ± 1.5 nm/s.

Q: What about the Papp B→A at 120 min, 30 nM (P-gp (MDR1); [7]) of the same compound?
A: Its Papp B→A at 120 min, 30 nM is 27.2 ± 0.5 nm/s.

Q: For CC[C@H]1NC(=O)[C@H](C(C)C)NC(=O)CNC(=O)C(CCCc2ccccc2)NC(=O)[C@@H]2CCCN2C(=O)[C@H](CC(=O)O)NC(=O)[C@H](CCC(=O)O)NC(=O)[C@H](Cc2ccc(O)cc2)NC(=O)[C@H](CC(C)C)NC(=O)[C@H]2CCCN2C(=O)CNC(=O)CNC(=O)[C@H](CCSC)NC(=O)CNC(=O)CNC1=O (stereo partly shown) [CP7] (cyclo([dP]LYEDP[ξhhPhe]GV[dAbu]GGMGG)), which IC50 [1] is on record?
A: Its IC50 is 3.54 ± 0.31 µM.

Q: What about the IC50 [2] of the same compound?
A: The IC50 was 14.8 ± 0.57 µM.

Q: What about the IC50 [3] of the same compound?
A: Its IC50 is 0.22 ± 0.01 µM.

Q: And the IC50 [4]?
A: The IC50 was 0.36 ± 0.01 µM.

Q: Which IC50 [1] does the source give for CSCC[C@@H]1NC(=O)CNC(=O)CNC(=O)[C@H](C)NC(=O)[C@H](C(C)C)NC(=O)CNC(=O)[C@H](CC(C)C)NC(=O)[C@@H]2CCCN2C(=O)[C@H](CC(=O)O)NC(=O)[C@H](CCCNC(=N)N)NC(=O)[C@H](Cc2ccc(O)cc2)NC(=O)[C@@H](NC(=O)CCC(=O)O)CSSC[C@@H](C(N)=O)NC1=O [CP11] here?
A: Its IC50 is 8.52 ± 0.39 µM.

Q: What about the IC50 [2] of the same compound?
A: Its IC50 is 7.78 ± 2.63 µM.

Q: And the IC50 [3]?
A: The IC50 was 4.99 ± 0.6 µM.

Q: What about the IC50 [4] of the same compound?
A: The IC50 was 4.1 ± 0.76 µM.

Q: For CSCC[C@@H]1NC(=O)CNC(=O)CNC(=O)[C@H](C)NC(=O)[C@H](C(C)C)NC(=O)CNC(=O)[C@H](CC(C)C)NC(=O)[C@@H]2CCCN2C(=O)[C@H](CC(=O)O)NC(=O)[C@H](CCC(=O)O)NC(=O)[C@H](Cc2ccc(O)cc2)NC(=O)[C@H](CC(C)C)NC(=O)[C@H](CO)NC(=O)CNC(=O)[C@H]2CCCN2C(=O)[C@H](C(C)C)NC(=O)CNC1=O [CP5], which IC50 [1] is on record?
A: Its IC50 is 17 ± 4.58 µM.

Q: What about the IC50 [4] of the same compound?
A: The IC50 was 4.63 µM.
